# Patent US20240343722A1 (VIFOR (INTERNATIONAL) AG, priority 2021, published 2024)
# Molecular target: T1, ferroportin (Fpn) (Mus musculus, UniProt Q9JHI9)
# T1 construct: endogenous in cells; host or cells: J774 mouse macrophage cell line, induced with Fe(III)NTA
# T1 sequence (Q9JHI9 1-570): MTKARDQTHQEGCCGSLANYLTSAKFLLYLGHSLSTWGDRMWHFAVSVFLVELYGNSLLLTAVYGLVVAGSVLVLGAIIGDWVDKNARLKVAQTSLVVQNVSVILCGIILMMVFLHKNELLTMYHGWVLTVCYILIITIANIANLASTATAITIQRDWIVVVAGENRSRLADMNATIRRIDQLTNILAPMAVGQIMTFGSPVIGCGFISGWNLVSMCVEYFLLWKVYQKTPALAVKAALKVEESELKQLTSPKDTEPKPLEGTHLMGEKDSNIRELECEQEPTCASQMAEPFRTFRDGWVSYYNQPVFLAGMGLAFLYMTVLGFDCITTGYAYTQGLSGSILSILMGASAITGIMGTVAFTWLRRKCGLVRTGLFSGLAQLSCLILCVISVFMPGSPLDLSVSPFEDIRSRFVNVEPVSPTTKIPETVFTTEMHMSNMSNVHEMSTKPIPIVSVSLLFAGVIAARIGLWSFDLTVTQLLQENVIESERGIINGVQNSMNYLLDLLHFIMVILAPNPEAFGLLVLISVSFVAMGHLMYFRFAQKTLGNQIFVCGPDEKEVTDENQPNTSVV
# Experiment: Hepcidin Internalization Assay (J774)
# Assay type: cell-based
# Details: Average (AVE) IC50 of multiple measurements; inhibition of TMR-hepcidin (25 nM) internalization into J774 cells
# From the text: This cellular assay allows quantification of the binding of hepcidin to ferroportin (Fpn) through microscopic detection of internalization of a fluorescently labeled hepcidin into J774 cells. […] Binding of hepcidin to Fpn triggers internalization and degradation of both hepcidin and Fpn. […] Therefore, microscopic detection of cell-associated TMR fluorescence is a measure of hepcidin binding to Fpn and internalization of hepcidin and Fpn. If TMR-hepcidin is prevented from binding to Fpn, cellular TMR fluorescence remains low (Durrenberger et al, 2013). The effect of small molecular weight Fpn inhibitor compounds in this assay was evaluated in vitro as described below. […] After removal of the paraformaldehyde solution, cells were washed 3 times with PBS leaving 100 μl per well and the plates were sealed with foil plate seal. TMR (530-550 nm excitation/575-625 nm emission/400 ms exposure time) and Hoechst 33342 (360-370 nm excitation/420-460 nm emission /10 ms exposure time) fluorescence images were acquired using a […] imager (Olympus) with a 20× high NA objective. […] The acquired image data was analysed with the […] analysis software. […] IC50 values were calculated with the Sum(Mean) raw data using “log(inhibitor) vs. response” curve fitting of Prism 5 software (GraphPad Software Inc., version 5.02). For each data set the fit of the “log(inhibitor) vs. response (three parameters)” model was compared to the fit of the “log(inhibitor) vs. response - Variable slope (four parameters)” model and the IC50 data of the preferred model was used.
row,SMILES,IC50 [nM]
1,"O=C(NCc1ncccc1F)c1coc(CCNCCc2nc3cc4c(cc3n2CC(F)F)OCCO4)n1 [Example 71, 2-(2-((2-(1-(2,2-difluoroethyl)-6,7-dihydro-1 H-[1,4]dioxino[2′,3′:4,5]benzo[1,2-d]imidazol-2-yl)ethyl)amino)ethyl)-N-((3-fluoropyridin-2-yl)methyl)oxazole-4-carboxamide]",7
2,"COc1cccc(-n2c(CCNCCc3nc(C(=O)NCc4ncccc4F)co3)nc3cc(OC)c(OC)cc32)c1 [Example 72, 2-(2-((2-(5,6-dimethoxy-1-(3-methoxyphenyl)-1H-benzo[d]imidazol-2-yl)ethyl)amino)ethyl)-N-((3-fluoropyridin-2-yl)methyl)oxazole-4-carboxamide]",35
3,"O=C(NCc1ncccc1F)c1coc(CCNCCc2nc3cc4c(cc3n2CCN2CCCCC2)OCCO4)n1 [Example 74, N-((3-fluoropyridin-2-yl)methyl)-2-(2-((2-(1-(2-(piperidin-1-yl)ethyl)-6,7-dihydro-1H-[1,4]dioxino[2′,3′:4,5]benzo[1,2-d]imidazol-2-yl)ethyl)amino)ethyl)oxazole-4-carboxamide]",4.9
4,"COc1cccnc1CNC(=O)c1coc(CCNCCc2nc3cc4c(cc3n2CCN(C)C)OCCO4)n1 [Example 76, 2-(2-((2-(1-(2-(dimethylamino)ethyl)-6,7-dihydro-1 H-[1,4]dioxino[2′,3′:4,5]benzo[1,2-d]imidazol-2-yl)ethyl)amino)ethyl)-N-((3-methoxypyridin-2-yl)methyl)oxazole-4-carboxamide]",13
5,"O=C(NCc1ncccc1F)c1coc(CCNCCc2nc3cc4c(cc3n2-c2ccccc2)OCO4)n1 [Example 82, N-((3-fluoropyridin-2-yl)methyl)-2-(2-((2-(5-phenyl-5H-[1,3]dioxolo[4′,5′:4,5]benzo[1,2-d]imidazol-6-yl)ethyl)amino)ethyl)oxazole-4-carboxamide]",2
6,"O=C(NCc1ncccc1F)c1coc(CCNCCc2nc3cc4c(cc3n2-c2ccccc2)OCCO4)n1 [Example 83, N-((3-fluoropyridin-2-yl)methyl)-2-(2-((2-(1-phenyl-6,7-dihydro-1 H-[1,4]dioxino[2′,3′:4,5]benzo[1,2-d]imidazol-2-yl)ethyl)amino)ethyl)oxazole-4-carboxamide]",1.9
7,"O=C(NCc1ncccc1F)c1coc(CCNCCc2nc3cc(C#Cc4ccccn4)ccc3n2-c2ccccc2)n1 [Example 85, N-((3-fluoropyridin-2-yl)methyl)-2-(2-((2-(1-phenyl-5-(pyridin-2-ylethynyl)-1H-benzo[d]imidazol-2-yl)ethyl)amino)ethyl)oxazole-4-carboxamide]",7.8
8,"COCCn1c(CCNCCc2nc(C(=O)NCc3ncccc3F)co2)nc2cc(C#Cc3ccccn3)ccc21 [Example 86, N-((3-fluoropyridin-2-yl)methyl)-2-(2-((2-(1-(2-methoxyethyl)-5-(pyridin-2-ylethynyl)-1 H-benzo[d]imidazol-2-yl)ethyl)amino)ethyl)oxazole-4-carboxamide]",4.1
9,"CCCCn1c(CCNCCc2nc(C(=O)NCc3ncccc3F)co2)nc2cc(OC)c(OC)cc21 [Example 87, 2-(2-((2-(1-butyl-5,6-dimethoxy-1 H-benzo[d]imidazol-2-yl)ethyl)amino)ethyl)-N-((3-fluoropyridin-2-yl)methyl)oxazole-4-carboxamide]",17
10,"O=C(NCc1ncccc1F)c1coc(CCNCCc2nc3cc4c(cc3n2CCOC2CCCCC2)OCCO4)n1 [Example 88, 2-(2-((2-(1-(2-(cyclohexyloxy)ethyl)-6,7-dihydro-1H-[1,4]dioxino[2′,3′:4,5]benzo[1,2-d]imidazol-2-yl)ethyl)amino)ethyl)-N-((3-fluoropyridin-2-yl)methyl)oxazole-4-carboxamide]",0.9
11,"COc1cccnc1CNC(=O)c1coc(CCNCCc2nc3cc4c(cc3n2CCOC2CCCCC2)OCCO4)n1 [Example 91, 2-(2-((2-(1-(2-(cyclohexyloxy)ethyl)-6,7-dihydro-1H-[1,4]dioxino[2′,3′:4,5]benzo[1,2-d]imidazol-2-yl)ethyl)amino)ethyl)-N-((3-methoxypyridin-2-yl)methyl)oxazole-4-carboxamide]",2
12,"O=C(NCc1ncccc1F)c1coc(CCNCCc2nc3cc4c(cc3n2CCc2ncco2)OCCO4)n1 [Example 94, N-((3-fluoropyridin-2-yl)methyl)-2-(2-((2-(1-(2-(oxazol-2-yl)ethyl)-6,7-dihydro-1 H-[1,4]dioxino[2′,3′:4,5]benzo[1,2-d]imidazol-2-yl)ethyl)amino)ethyl)oxazole-4-carboxamide]",365

# Continued, values first:
row,IC50 [nM],SMILES
1,2.6,"CC(C)OCCn1c(CCNCCc2nc(C(=O)NCc3ncccc3F)co2)nc2cc3c(cc21)OCCO3 [Example 73, N-((3-fluoropyridin-2-yl)methyl)-2-(2-((2-(1-(2-isopropoxyethyl)-6,7-dihydro-1 H-[1,4]dioxino[2′,3′:4,5]benzo[1,2-d]imidazol-2-yl)ethyl)amino)ethyl)oxazole-4-carboxamide]"
2,1.3,"COc1cccc(-n2c(CCNCCc3nc(C(=O)NCc4ncccc4F)co3)nc3cc4c(cc32)OCO4)c1 [Example 75, N-((3-fluoropyridin-2-yl)methyl)-2-(2-((2-(5-(3-methoxyphenyl)-5H-[1,3]dioxolo[4′,5′:4,5]benzo[1,2-d]imidazol-6-yl)ethyl)amino)ethyl)oxazole-4-carboxamide]"
3,5.1,"CN(C)CCn1c(CCNCCc2nc(C(=O)NCc3ncccc3F)co2)nc2cc3c(cc21)OCCO3 [Example 77, 2-(2-((2-(1-(2-(dimethylamino)ethyl)-6,7-dihydro-1 H-[1,4]dioxino[2′,3′:4,5]benzo[1,2-d]imidazol-2-yl)ethyl)amino)ethyl)-N-((3-fluoropyridin-2-yl)methyl)oxazole-4-carboxamide]"
4,4,"O=C(NCc1ncccc1F)c1coc(CCNCCc2nc3cc4c(cc3n2CCN2CCOCC2)OCCO4)n1 [Example 81, N-((3-fluoropyridin-2-yl)methyl)-2-(2-((2-(1-(2-morpholinoethyl)-6,7-dihydro-1 H-[1,4]dioxino[2′,3′:4,5]benzo[1,2-d]imidazol-2-yl)ethyl)amino)ethyl)oxazole-4-carboxamide]"
5,150,"CN1CCN(CCn2c(CCNCCc3nc(C(=O)NCc4ncccc4F)co3)nc3cc4c(cc32)OCCO4)CC1 [Example 84, N-((3-fluoropyridin-2-yl)methyl)-2-(2-((2-(1-(2-(4-methylpiperazin-1-yl)ethyl)-6,7-dihydro-1H-[1,4]dioxino[2′,3′:4,5]benzo[1,2-d]imidazol-2-yl)ethyl)amino)ethyl)oxazole-4-carboxamide]"
6,4,"O=C(NCc1ncccc1F)c1coc(CCNCCc2nc3cc(C#Cc4ccccn4)ccc3n2CC2CC2)n1 [Example 89, 2-(2-((2-(1-(cyclopropylmethyl)-5-(pyridin-2-ylethynyl)-1 H-benzo[d]imidazol-2-yl)ethyl)amino)ethyl)-N-((3-fluoropyridin-2-yl)methyl)oxazole-4-carboxamide]"
7,39,"COc1ccc(-n2c(CCNCCc3nc(C(=O)NCc4ncccc4F)co3)nc3cc(OC)c(OC)cc32)cc1OC [Example 90, 2-(2-((2-(1-(3,4-dimethoxyphenyl)-5,6-dimethoxy-1 H-benzo[d]imidazol-2-yl)ethyl)amino)ethyl)-N-((3-fluoropyridin-2-yl)methyl)oxazole-4-carboxamide]"
8,2,"COc1cccc(-n2c(CCNCCc3nc(C(=O)NCc4ncccc4F)co3)nc3cc4c(cc32)OCCO4)c1 [Example 92, N-((3-fluoropyridin-2-yl)methyl)-2-(2-((2-(1-(3-methoxyphenyl)-6,7-dihydro-1 H-[1,4]dioxino[2′,3′:4,5]benzo[1,2-d]imidazol-2-yl)ethyl)amino)ethyl)oxazole-4-carboxamide]"
9,3,"COc1cccc(-n2c(CCNCCc3nc(C(=O)NCc4ncccc4OC)co3)nc3cc4c(cc32)OCCO4)c1 [Example 93, 2-(2-((2-(1-(3-methoxyphenyl)-6,7-dihydro-1 H-[1,4]dioxino[2′,3′:4,5]benzo[1,2-d]imidazol-2-yl)ethyl)amino)ethyl)-N-((3-methoxypyridin-2-yl)methyl)oxazole-4-carboxamide]"
